Experimental findings from ChEMBL document CHEMBL5465560, “Selectivity Literature for EUbOPEN Chemogenomic Library” (2024) are described below.

In test [1] the test system is Proto-oncogene tyrosine-protein kinase receptor Ret (Homo sapiens), P07949 [M918T]. Put plainly: (§1) Selectivity interaction (KinomeScan (DiscoverX)) EUB0000607a RET. As to conditions: at 10 µM.
Test [2] addresses Proto-oncogene tyrosine-protein kinase receptor Ret (Homo sapiens, UniProt P07949). Described as §1. The following applies: at 10 µM.
Test [3] relates to Proto-oncogene tyrosine-protein kinase receptor Ret (Homo sapiens), P07949 [V804L]. The test is described as §1. As to conditions: at 10 µM.
Test [4] concerns Proto-oncogene tyrosine-protein kinase receptor Ret (Homo sapiens), P07949 [V804M]. The test is described as §1. As to conditions: at 10 µM.
Test [5] addresses T1, Serine/threonine-protein kinase Nek1 (Homo sapiens) (UniProt Q96PY6).
T1 sequence (whole entry): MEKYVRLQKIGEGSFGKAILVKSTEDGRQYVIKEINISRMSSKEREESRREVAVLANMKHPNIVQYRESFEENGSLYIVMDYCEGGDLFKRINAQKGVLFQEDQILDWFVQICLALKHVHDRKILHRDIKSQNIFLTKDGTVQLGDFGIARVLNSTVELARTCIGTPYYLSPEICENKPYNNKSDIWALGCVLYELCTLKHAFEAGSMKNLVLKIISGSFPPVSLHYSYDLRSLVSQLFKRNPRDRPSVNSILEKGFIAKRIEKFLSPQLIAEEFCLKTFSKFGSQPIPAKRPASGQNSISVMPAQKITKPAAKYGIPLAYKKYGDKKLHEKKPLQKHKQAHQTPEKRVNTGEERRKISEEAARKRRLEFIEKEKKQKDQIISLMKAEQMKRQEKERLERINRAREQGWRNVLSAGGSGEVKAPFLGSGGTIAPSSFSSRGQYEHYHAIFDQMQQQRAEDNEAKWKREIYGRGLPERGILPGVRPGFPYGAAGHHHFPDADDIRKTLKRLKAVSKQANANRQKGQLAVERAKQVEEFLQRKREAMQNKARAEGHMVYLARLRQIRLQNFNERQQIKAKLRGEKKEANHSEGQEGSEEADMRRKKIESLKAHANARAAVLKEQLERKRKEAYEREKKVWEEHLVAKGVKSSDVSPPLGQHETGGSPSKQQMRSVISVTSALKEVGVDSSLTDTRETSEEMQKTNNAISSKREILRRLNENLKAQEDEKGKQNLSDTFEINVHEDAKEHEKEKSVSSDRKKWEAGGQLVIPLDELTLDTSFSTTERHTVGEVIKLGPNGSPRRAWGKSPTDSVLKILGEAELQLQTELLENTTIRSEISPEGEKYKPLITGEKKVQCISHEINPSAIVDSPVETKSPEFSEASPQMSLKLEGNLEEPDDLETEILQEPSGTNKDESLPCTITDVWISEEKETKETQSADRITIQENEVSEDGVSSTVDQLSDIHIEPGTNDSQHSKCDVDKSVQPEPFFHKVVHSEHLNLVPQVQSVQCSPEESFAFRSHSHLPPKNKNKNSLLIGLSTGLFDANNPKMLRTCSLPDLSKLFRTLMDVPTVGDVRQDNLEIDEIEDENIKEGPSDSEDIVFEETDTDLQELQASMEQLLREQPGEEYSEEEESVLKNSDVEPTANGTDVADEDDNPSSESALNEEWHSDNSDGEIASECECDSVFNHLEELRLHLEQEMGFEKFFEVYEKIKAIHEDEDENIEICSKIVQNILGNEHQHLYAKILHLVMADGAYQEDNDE
As to conditions: at 10 µM.

Test [6] addresses T2, Aurora kinase C (Homo sapiens) (UniProt Q9UQB9).
T2 sequence (whole entry): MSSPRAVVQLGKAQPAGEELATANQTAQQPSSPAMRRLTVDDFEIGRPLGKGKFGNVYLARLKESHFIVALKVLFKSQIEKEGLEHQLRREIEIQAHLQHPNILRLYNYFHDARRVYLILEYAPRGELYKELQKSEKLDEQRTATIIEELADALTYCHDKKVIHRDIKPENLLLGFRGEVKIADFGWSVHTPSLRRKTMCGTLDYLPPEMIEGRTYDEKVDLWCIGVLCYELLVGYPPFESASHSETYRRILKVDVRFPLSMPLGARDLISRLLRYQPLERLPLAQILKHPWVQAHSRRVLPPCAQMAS
As to conditions: at 10 µM.

Test [7] concerns the target T3, Serine/threonine-protein kinase MAK (Homo sapiens) (UniProt P20794).
T3 sequence (whole entry): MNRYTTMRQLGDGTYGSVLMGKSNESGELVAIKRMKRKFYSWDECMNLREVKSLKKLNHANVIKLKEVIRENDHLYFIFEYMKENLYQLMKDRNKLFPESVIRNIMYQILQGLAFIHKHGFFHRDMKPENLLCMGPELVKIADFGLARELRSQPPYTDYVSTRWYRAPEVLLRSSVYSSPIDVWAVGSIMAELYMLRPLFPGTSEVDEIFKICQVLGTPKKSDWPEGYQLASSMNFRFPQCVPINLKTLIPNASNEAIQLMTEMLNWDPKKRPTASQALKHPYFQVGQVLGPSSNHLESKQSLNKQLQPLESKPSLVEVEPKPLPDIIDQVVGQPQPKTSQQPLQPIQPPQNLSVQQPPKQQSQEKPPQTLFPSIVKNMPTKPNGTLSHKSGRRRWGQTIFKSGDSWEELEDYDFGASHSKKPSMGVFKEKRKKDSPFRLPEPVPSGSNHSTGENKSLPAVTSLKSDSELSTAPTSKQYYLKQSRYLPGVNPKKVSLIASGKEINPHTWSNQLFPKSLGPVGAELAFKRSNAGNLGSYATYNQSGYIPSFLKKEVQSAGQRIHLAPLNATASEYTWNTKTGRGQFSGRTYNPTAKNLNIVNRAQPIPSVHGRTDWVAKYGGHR
Put plainly: Selectivity interaction (KinomeScan (DiscoverX)) EUB0000655a MAK. The following applies: at 10 µM.

The target of test [8] is Mitogen-activated protein kinase kinase kinase kinase 1 (Homo sapiens) (UniProt Q92918). Put plainly: Selectivity interaction (ActivX KiNativ screen (kinase selectivity in THP-1 cell lysates)) EUB0000639a MAP4K1. It counts as subcellular. As to conditions: lysate, at 1 µM.
Test [9] addresses Tyrosine-protein kinase CSK (Homo sapiens) (UniProt P41240). Put plainly: Selectivity interaction (Kinase panel (Invitrogen)) EUB0000639a CSK. The following applies: at 200 nM.
In test [10] the target is Tyrosine-protein kinase JAK1 (Homo sapiens, UniProt P23458). As to conditions: at 10 µM.
Tyrosine-protein kinase JAK1, sequence (P23458 whole entry): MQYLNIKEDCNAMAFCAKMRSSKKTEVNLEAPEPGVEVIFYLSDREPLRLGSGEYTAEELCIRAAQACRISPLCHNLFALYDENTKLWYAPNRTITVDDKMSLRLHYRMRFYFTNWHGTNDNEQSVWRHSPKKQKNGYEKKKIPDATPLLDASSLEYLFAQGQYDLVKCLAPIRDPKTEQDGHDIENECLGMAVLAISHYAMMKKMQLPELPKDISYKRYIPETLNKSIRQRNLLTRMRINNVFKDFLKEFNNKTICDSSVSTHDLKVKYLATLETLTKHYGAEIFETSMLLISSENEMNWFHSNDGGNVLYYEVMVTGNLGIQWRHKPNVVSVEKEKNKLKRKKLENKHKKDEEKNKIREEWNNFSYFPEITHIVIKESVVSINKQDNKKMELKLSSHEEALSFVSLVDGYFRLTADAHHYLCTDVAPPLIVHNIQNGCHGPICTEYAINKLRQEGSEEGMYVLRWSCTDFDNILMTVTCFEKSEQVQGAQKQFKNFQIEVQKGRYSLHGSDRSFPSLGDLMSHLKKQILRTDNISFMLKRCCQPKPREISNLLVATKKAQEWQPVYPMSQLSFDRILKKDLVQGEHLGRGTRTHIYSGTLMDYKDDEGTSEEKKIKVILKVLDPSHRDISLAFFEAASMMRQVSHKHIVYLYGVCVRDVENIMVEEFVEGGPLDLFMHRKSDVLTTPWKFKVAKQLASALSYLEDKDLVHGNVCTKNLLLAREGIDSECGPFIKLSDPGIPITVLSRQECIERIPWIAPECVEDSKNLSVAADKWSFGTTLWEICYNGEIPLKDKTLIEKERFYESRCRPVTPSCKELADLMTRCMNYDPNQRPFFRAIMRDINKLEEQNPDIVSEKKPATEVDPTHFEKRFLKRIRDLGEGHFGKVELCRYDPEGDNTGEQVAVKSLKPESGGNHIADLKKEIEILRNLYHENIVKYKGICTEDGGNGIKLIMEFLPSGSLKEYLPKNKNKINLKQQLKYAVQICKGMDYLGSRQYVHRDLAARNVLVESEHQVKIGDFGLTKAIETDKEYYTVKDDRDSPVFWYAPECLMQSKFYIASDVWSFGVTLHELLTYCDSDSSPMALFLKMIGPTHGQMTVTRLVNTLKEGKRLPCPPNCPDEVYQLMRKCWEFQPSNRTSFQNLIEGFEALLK
The target of test [11] is Macrophage colony-stimulating factor 1 receptor (Homo sapiens) (UniProt P07333). Briefly: Selectivity interaction (KinomeScan (DiscoverX)) EUB0001049a CSF1R. The following applies: at 1 µM.
Macrophage colony-stimulating factor 1 receptor (Homo sapiens), sequence (P07333 whole entry): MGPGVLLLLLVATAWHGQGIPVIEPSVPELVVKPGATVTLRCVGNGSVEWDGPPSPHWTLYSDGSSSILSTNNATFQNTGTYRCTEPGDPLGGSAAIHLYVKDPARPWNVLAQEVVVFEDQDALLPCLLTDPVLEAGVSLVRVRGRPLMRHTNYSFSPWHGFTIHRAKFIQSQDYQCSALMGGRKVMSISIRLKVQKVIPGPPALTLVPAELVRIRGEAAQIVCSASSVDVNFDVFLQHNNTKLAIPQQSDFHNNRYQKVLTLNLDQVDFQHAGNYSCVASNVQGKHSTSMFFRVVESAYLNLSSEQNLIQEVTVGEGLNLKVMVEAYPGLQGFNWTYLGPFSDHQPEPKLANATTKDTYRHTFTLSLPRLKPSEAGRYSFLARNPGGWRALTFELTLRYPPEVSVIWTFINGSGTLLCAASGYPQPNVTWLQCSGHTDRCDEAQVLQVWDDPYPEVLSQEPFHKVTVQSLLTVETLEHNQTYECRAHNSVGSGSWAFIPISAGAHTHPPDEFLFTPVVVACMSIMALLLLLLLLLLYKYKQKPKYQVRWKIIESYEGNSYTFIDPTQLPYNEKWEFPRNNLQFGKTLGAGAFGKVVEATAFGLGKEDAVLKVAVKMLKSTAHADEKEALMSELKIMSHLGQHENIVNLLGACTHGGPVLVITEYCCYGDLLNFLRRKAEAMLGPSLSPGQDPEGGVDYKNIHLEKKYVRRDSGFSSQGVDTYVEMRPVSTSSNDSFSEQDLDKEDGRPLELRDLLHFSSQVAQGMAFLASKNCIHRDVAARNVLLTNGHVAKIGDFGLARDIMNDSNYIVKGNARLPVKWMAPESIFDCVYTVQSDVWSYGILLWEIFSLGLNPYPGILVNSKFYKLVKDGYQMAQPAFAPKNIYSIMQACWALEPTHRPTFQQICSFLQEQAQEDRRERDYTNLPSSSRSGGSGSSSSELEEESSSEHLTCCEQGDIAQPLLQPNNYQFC
The target in test [12] is Tyrosine-protein kinase receptor UFO (Homo sapiens) (UniProt P30530). Briefly: Selectivity interaction (ProQinase) EUB0000171b AXL.
Tyrosine-protein kinase receptor UFO (Homo sapiens), sequence (P30530 whole entry): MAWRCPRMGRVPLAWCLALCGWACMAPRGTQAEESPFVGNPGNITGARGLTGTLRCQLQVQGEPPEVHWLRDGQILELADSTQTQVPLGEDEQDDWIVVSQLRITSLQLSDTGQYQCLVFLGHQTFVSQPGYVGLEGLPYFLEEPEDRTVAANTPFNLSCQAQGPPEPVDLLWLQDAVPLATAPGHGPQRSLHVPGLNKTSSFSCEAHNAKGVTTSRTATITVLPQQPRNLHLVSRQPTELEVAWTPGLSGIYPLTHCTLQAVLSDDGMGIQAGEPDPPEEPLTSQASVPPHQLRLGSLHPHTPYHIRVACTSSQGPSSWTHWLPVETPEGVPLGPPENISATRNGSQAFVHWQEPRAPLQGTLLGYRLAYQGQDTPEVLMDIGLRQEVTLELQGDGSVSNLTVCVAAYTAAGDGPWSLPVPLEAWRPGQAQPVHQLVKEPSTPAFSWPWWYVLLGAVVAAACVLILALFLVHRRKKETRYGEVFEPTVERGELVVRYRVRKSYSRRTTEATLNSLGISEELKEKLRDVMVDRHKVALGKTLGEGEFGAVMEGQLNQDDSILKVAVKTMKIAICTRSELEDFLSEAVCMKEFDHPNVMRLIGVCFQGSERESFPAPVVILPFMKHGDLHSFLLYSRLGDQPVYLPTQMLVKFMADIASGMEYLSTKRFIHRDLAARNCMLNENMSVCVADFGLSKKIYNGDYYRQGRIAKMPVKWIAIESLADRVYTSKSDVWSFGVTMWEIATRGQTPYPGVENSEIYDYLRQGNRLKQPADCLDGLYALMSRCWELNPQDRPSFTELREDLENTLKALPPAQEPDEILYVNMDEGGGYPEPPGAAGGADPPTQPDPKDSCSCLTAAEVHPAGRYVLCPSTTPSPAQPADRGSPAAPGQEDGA
Test [13] deals with Vascular endothelial growth factor receptor 1 (Homo sapiens) (UniProt P17948). Put plainly: Selectivity interaction (Kinase panel (DSF assay)) EUB0001489b FLT1. A general note: Differential scanning fluorimetry follows unfolding on heating by fluorescence.
Vascular endothelial growth factor receptor 1 (Homo sapiens), sequence (P17948 whole entry): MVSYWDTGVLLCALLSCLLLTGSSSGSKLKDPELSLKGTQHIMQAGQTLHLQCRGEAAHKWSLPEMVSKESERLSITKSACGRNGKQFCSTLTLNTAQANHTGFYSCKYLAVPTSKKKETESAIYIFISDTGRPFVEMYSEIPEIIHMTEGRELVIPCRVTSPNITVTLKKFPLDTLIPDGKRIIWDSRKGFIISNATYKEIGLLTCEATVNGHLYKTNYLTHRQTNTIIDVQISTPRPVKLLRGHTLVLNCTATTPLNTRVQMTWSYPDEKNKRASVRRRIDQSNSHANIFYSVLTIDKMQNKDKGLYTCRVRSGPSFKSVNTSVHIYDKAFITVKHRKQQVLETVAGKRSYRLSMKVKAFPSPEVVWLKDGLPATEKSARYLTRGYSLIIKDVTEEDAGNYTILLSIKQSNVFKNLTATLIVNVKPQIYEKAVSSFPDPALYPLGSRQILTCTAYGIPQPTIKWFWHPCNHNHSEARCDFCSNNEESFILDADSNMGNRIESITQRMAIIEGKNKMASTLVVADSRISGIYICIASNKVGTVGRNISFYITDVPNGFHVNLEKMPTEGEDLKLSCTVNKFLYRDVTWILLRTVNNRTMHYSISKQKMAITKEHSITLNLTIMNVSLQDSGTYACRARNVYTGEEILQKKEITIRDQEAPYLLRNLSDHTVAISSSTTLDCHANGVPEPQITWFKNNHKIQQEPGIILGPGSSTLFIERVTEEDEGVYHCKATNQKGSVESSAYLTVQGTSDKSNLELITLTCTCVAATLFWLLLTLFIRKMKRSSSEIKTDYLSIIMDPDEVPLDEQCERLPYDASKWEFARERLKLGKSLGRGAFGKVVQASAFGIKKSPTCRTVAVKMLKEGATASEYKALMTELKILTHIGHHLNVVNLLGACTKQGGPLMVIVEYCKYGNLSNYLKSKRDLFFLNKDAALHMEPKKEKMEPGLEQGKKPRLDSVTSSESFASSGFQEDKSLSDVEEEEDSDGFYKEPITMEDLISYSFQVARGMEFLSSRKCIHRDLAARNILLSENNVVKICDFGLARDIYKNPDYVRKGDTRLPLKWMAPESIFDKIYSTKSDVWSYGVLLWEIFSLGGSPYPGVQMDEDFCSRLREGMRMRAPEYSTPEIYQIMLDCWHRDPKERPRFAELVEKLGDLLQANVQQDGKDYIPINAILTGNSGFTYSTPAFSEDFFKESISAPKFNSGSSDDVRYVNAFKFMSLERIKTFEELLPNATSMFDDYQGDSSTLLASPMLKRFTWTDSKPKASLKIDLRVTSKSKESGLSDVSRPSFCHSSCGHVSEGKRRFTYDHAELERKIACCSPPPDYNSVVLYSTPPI
Test [14] concerns the target Activin receptor type-2B (Homo sapiens) (UniProt Q13705). Put plainly: Selectivity interaction (KinomeScan (DiscoverX)) EUB0000092b ACVR2B. The following applies: at 10 µM.

Activin receptor type-2B (Homo sapiens), sequence (Q13705 whole entry): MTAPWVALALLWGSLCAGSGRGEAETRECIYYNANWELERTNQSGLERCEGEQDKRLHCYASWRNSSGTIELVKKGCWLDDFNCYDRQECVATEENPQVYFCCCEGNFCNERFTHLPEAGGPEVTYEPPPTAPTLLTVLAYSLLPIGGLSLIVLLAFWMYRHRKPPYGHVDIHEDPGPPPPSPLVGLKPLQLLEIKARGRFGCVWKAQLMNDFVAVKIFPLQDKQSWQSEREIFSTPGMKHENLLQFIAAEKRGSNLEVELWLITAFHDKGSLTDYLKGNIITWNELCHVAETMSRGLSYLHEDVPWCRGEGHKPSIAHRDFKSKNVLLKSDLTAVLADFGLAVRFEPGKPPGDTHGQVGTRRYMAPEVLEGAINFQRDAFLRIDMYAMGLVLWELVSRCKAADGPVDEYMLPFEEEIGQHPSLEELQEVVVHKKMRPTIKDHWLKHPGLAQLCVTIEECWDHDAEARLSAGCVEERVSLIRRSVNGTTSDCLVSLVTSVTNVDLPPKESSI

Turning to `CNC(=O)Nc1ccc(-c2nc(N3CC4CCC(C3)O4)c3cnn(C4CCC5(CC4)OCCO5)c3n2)cc1`, the % of control in test [1] was 73%; in test [2], 91%; in test [3], 85%; in test [4] it was 100%.
For `Cc1cc([C@@H](C)Nc2ccccc2C(=O)O)c2nc(N3CCOCC3)cc(=O)n2c1` [AZD-6482], the % of control in test [5] came to 85%; in test [6], 93%.
Consider `CN(C)CCOc1ccc(-c2nc(-c3ccncc3)c(-c3ccc4c(c3)CC/C4=N\O)[nH]2)cc1`, for which the % of control in [7] stood at 100%.
In the case of `CC[C@@H]1[C@H](F)C(=O)N[C@@H]1COc1nccc2cc(C(N)=O)c(OC)cc12` [ZIMLOVISERTIB], the % of inhibition in test [8] is -17.4%; in test [9], 11.4%.
For `CCN(CC)CCCCNc1ncc2cc(-c3cc(OC)cc(OC)c3)c(NC(=O)NC(C)(C)C)nc2n1`, in [10], the % of control came to 100%.
`COc1cc(Nc2nc(C)cc(-c3cnn4nc(OC)ccc34)n2)cc(C(F)(F)F)c1`: the % of control in test [11] stood at 100%.
On to `C=CC(=O)Nc1cccc(C(=O)Nc2ccc(Nc3cc(-c4[nH]c(SC)nc4C)ccn3)cc2)c1`, for which the % of control in test [12] (at 1 µM) turned out to be 99%; in test [12] (at 5 µM) it was 76%.
Consider `CN1CCN(C(=O)c2ccc3cc2OCCOCCNc2ccn4ncc-3c4n2)CC1`, for which the dTM in [13] came to 2.9 K.
As to `CCC(=O)N1CCN(c2ccc(-n3c(=O)ccc4cnc5ccc(-c6cnc7ccccc7c6)cc5c43)cc2C(F)(F)F)CC1`, the % of control in test [14] was found to be 42%.
